Laboratory results taken from patent US11732048B2, “Anti-axl antagonistic antibodies” (BERGEN TEKNOLOGIOVERFØRING AS, priority 2016, dated 2023).
Read-outs that look alike come from different tables or passages of the source.

Test system: MDA-MB-231 cells
Assay: Tumour cell killing using antibody-Saporin conjugates (XTT/PMS viability)
Type: cell-based, human
Experimental: For generation of immunotoxin, the chimeric MAb was non-covalently coupled to a plant toxin Saporin using FabFc-ZAP human conjugate (4.5 nM final concentration) (Advanced Targeting Systems, Cat. no. IT-65). The effect of chAb-Saporin internalization on tumour cell viability was tested using Axl-positive tumour cell line MDA-MB-231 (human triple negative breast carcinoma). Eight hundred cells were seeded per well in 96-well plates in DMEM/F-12 media supplied with 10% FBS, L-glutamine (4 mM), streptomycin (5 μg/ml) and penicillin (5 U/ml) and allowed to attach for 16 hours. The cells were incubated with different dilutions of immunotoxin chAb-Saporin for 72 hrs. The viability of the cells was determined by performing an XTT/PMS assay using a CLARIOstar® microplate reader (BMG LABTECH)
Unconjugated Saporin and an isotype control antibody (human IgG1) coupled to Saporin (control SAP) were used as negative controls.
Tumour cell killing using antibody-Saporin conjugates performed as described in Example 20. A comparison of two variants of humanised 10G5 and YW327.6S2 was performed.

Saporin
EC50 (Table 4, antibody coupled to Saporin via FabFc-ZAP, MDA-MB-231, 72 hrs, read-out: EC50 (effective concentration leading to 50% cell killing)): 99.1 nM | EC50 (Table 5, antibody-Saporin conjugates as in Example 20, MDA-MB-231, read-out: EC50 (cell killing)): 247 nM
